As a reminder, the IC50 is the concentration that inhibits the measured activity by half. Usually melting point stands for the temperature, or range, at which the solid turns liquid.

SMILES strings stand for the structures.

Consider 14 compounds from US7129250B2, “Neuroprotective and anti-proliferative compounds” (Aegera Therapeutics Inc., priority 2000, dated 2006).

The test system of data set [1] is CGNs. Kind of data set: Cisplatin Killing of CGNs. It is filed as cell-based, CD1 mice. The conditions noted are these: Mus musculus; assayed 48 hours after final drug treatment. The method, then: Cisplatin has been used extensively in the treatment of various cancers. One dosblimiting side effect of this chemotherapeutic agent is related to hearing loss as a result of its toxicity to auditory neurons and loss of feeling in the extremities. Cisplatin induces apoptosis to both cultured CGN and cortical neurons.
CGNs were harvested from day 8/9 post-natal CD1 mice, plated on Poly-D-Lycine coated plates and incubated for 6 days at 37° C. under 5% CO2. The cells were treated with media containing drug and cisplatin […].

The test system of another data set is SCG neurons. Kind of data set: NGF Withdrawal Killing of SCG Neurons. The class given is cell-based, Sprague-Dawley rats. Conditions: Rattus norvegicus, Neuron, assayed 48 hours after drug. From the text:
Cultured Superiour Cervical Ganglion (SCG) neurons of the PNS which have been sustained in media containing Neuron Growth Factor (NGF) undergo apoptotic cell death upon removal of the NGF from the cellular medium. Loss of neuronal trofin support has been implicated in various neurodegenerative disease states in the PNS, such as diabetic neuropathy and neuropahies related to chemotherapeutic and anti-HIV drug treatment.
SCG neurons were harvested from day 1 post natal Sprague-Dawley rats, plated on collagen coated plates and incubated for 5 days in the presence of 50 ng/mL NGF at 37° C. under 5% CO2. The cells were washed with NGF free media, 4 times at 1 hour intervals, at which time drug was added.

The test system of the next data set is HIAP1 mRNA in LAN5 cells. Kind of data set: LAN5 HAIP1 Down Regulators (RNA levels). The class given is cell-based. The conditions noted are these: HIAP1 RNA level vs control = 1.0; 24 hours drug. As for the experimental part: LAN5 cells were grown in growth media. Cells were plated at cells 50,000 per well in 96 cells per 96 wells. Five days latter drug was added and the cells were liced 24 hours latter using RLT buffer.

The test system of data set [2] is CGNs. In words: High/Low Potassium (HK/LK) assay in CGNs. It is filed as cell-based. As for the experimental part:
Cultured CGNs which are maintained in a medium containing 26 mM potassium (high K^+ or HK) undergo cell death when the medium is changed to one containing 5 mM potassium (low K^+ or LK). HK maintains the cells in a highly polarized state, duplicating that of fully innervated neurons. The switch to LK (5 mM is more representative of physiological conditions) results in depolarization of the cells, mimicking the loss of neuronal conductivity. […] As these killer genes are turned on by various types of neuronal insult as observed in AD, PD, and stroke, HK/LK is a general in vitro model for neuronal degradation, blanketing a wide range of neurodegenerative diseases. Compounds that protect against HK/LK in CGNs would therefore be efficacious in treatment and/or prevention of various neurodegenerative disease states.
CGNs were harvested from day 8/9 post-natal CD1 mice, plated on Poly-D-Lycine coated plates and incubated for 6 days at 37° C., with […] potassium, under 5% CO2. Pretreated cells were treated with drug 24 hours prior to changing the media to one containing […] potassium and drug. Cells were assayed 16 hours after the final media change using cell TITER96 (Promega).

In a further data set the test system is SHSY-5Y cells. In words: Etoposide Killing of SHSY-5Y. It is filed as cell-based. Conditions: etoposide 32 uM. The method, then: SHSY-5Y cells were grown in growth media. Cells are placed at 50,000 cells per 96 well. Four days latter the cells were treated with drug for 48 hours prior to etoposide (32 uM) treatment. On day 6 media was changed to that containing etoposide and drug for 4 hours, at which point the media was changed to media containing drug only. Cells are allowed to survive overnight and then assessed for viability with metabolic activity measured (WST-1-Beohringer Mannheime), as shown in TABLE 13.

For data set [3], the system named is CGNs. In words: Ceramide Killing of CGNs. It is filed as cell-based, CD1 mice. Conditions: ceramide 100 uM; 300 nM, (250 nM in source). The source says:
Ceramide is a native […] found in most mammalian and human cells. The upregulation of endogenous ceramide has been linked to caspase 1 (ICE) induced apoptosis (Suzuki, A. et al. Exp. Cel. Res., 1997, 233, 41). In a similar fashion, the addition of ceramide to cultured CGNs results in caspase induced apoptosis, and is therefore considered an effective in vitro model for the various neurodegenerative diseases described above, which are characterized by caspase induced apoptosis, as observed in stroke models. Addition of selected compounds of the formula I through III, 24 hours prior to the addition of ceramide, to cultured CGNs provided protection against apoptosis, with 10 to 20% of the cells being saved at 1–10 μM drug concentrations (see Example 114).
CGNs were harvested from day 8/9 post-natal CD1 mice, plated on Poly-D-Lycine coated plates and incubated for 6 days at 37° C. under 5% CO2. Cells were pretreated with drug 24 hours prior to ceramide (100 uM) and drug addition.

Data set [4] concerns CGNs. In words: Glutamate Killing of CGNs. The class given is cell-based, CD1 mice. The conditions noted are these: glutamate 100 uM; 300 nM, (250 nM in source). From the text:
Glutaminergic neurons secrete the neurotransmitter glutamate as a part of normal cell signaling processes. Intracellular glutamate levels are regulated by glial cell uptake and conversion to glutamine. Under conditions of oxidative stress, as observed in various neurodegenerative diseases such as stroke, ALS, PD, and HD, glutaminergic neurons release massive amounts of glutamate into the […] fluid, overwhelming the surrounding cells. Stimulation of both NMDA and non NMDA-type glutamate excitory receptors leads to sustained depolarization of postsynaptic dendrosomal membranes, increased membrane permeability, and impaired ion homeostasis, all leading to either apoptotic or necrotic cell death.
CGNs were harvested from day 8/9 post-natal CD1 mice, plated on Poly-D-Lycine coated plates and incubated for 6 days at 37° C. under 5% CO2. Cells were pretreated with drug 24 hours prior to glutamate (100 uM) and drug addition.

The test system of data set [5] is DU145 prostate cancer cells. In words: Anticancer Effectiveness on Prostate Tumor Cells (Alamar Blue). It is filed as cell-based, Human. The conditions noted are these: for % Survival: 7 days. As for the experimental part: Prostate cancer is often resistant to traditional chemotherapies. DU145 is representative prostated cancer cell line. DU145cells were cultured in the presence of various concentrations of compound 136.
Human prostate DUI45 cells were cultured in 96 well dishes. Cells were treated with various concentrations of test compounds for 7 days. Media was then removed and replaced with fresh media containing Alamar Blue. The cells were incubated for a further 4 hours and Alamar blue and conversion was assessed by fluorescence. Compound effectiveness was determined by assessing the reduction in Alamar blue bioconversion following 7 day treatment.

Consider `O=C1NC(=O)C(n2ccc3ccccc32)=C1c1c[nH]c2ccc(OCc3ccccc3)cc12` [Compound 5, 3-(5-Benzyloxy-1H-indol-3-yl)-4-(indol-1-yl)-pyrrole-2,5-dione], for which the melting point was in the range of 217 to 220 °C. Further, in the data set with CGNs [1], inhibition was half-maximal at 10 µM (IC50).
Regarding `COc1ccc(C(=O)n2cc(C3=CC(=O)NC3=O)c3cc(OCc4ccccc4)ccc32)c(OC)c1` [Compound 67, 3-(N-(2,4-dimethoxybenzoyl)-5-benzyloxyindol-3-yl)-1H-pyrrole-2,5-dione], 10 µM corresponded to half-maximal inhibition in the data set on SCG neurons (IC50).
Same read-out and setting: the same measure for `Cc1ccc(S(=O)(=O)n2cc(C3=CC(=O)NC3=O)c3cc(O)ccc32)cc1` [Compound 91, 3-(N-tosyl-5-hydroxyindol-3-yl)-1H-pyrrole-2,5-dione]: 20 µM.
For `O=C1NC(=O)C(n2ccc3ccccc32)=C1c1c[nH]c2ccc(C#Cc3ccccc3)cc12` [Compound 15, 3-(Indol-1-yl)-4-(5-(β-phenylethynyl)-indol-3-yl)-pyrrole-2,5dione], the melting point is 141 to 144 °C.
Still for that read-out and setting: the same measure for `O=C1NC(=O)C(n2ccc3cc(OCc4ccccc4)ccc32)=C1c1c[nH]c2ccccc12` [Compound 12, 3-(5-benzyloxyindol-1-yl)-4-(1H-indol-3-yl)-1H-pyrrole-2,5-dione]: 114 to 116 °C.
Consider `CN(C)C(=O)n1cc(C2=CC(=O)NC2=O)c2cc(Br)ccc21` [Compound 58, 3-(N-(N,N-dimethylcarbamoyl)-5-bromoindol-3-yl)-1H-pyrrole-2,5-dione], for which the melting point was in the range of 287 to 288 °C. In the data set with HIAP1 mRNA in LAN5 cells, the “Fold Induction” value came out at 0.55.
In the data set with SCG neurons, `COC(=O)C(C)(C)Cc1c(C2=CC(=O)NC2=O)c2cc(OCc3ccc4ccccc4n3)ccc2n1Cc1ccc(Cl)cc1` [Compound 109] came in with an IC50 of 10 µM.
Still for that read-out and setting: the figure for `O=C1C=C(c2cn(S(=O)(=O)c3cccs3)c3ccccc23)C(=O)N1` [Compound 97, 3-(N-(2-thiophenesulfonyl)indol-3-yl)-1H-pyrrole-2,5-dione] is 10 µM.
`COC(=O)[C@@]1(O)C[C@H]2O[C@]1(C)n1c3ccccc3c3c4c(c5c6ccccc6n2c5c31)C(=O)NC4` [Compound K252a, K252a, reference compound]: the toxicity entry with CGNs [2] (higher doses) is “toxic at higher doses”. Besides, the “Fold Induction” value in the data set on HIAP1 mRNA in LAN5 cells came to 0.51. Also, the “% SHSY-5Y cell survival” value with SHSY-5Y cells (drug 1 μM) was 13.9%. For the same compound, the results for the “% CGN Survival” value with CGNs [3] and in the data set with CGNs [4] were 0 (250 nM) % and 4.3 (250 nM) %, respectively.
`CN(C)CCCn1cc(C2=C(n3ccc4ccccc43)C(=O)NC2=O)c2cc(OCc3ccccc3)ccc21` [Compound 136] registered a cells killed in data set [5] (10 μM, after 7 days) of 100%. For the same compound, the “% Survival” value in [5] (0.312 um) is reported as 102.71%; in data set [5] (0.625 um) it was 97.00%; in data set [5] (1.25 um) it was 99.61%; in [5] (2.5 um) it was 81.81%; in data set [5] (5 um) it was 66.75%; in data set [5] (10 um), −1.64%. Also, the “% Survival” value in data set [5] (20 um) is on record as −1.00%; in [5] (40 um), 1.17%.
For `Cc1ccc(S(=O)(=O)n2cc(C3=CC(=O)NC3=O)c3cc(OCc4ccccc4)ccc32)cc1` [Compound 70, 3-(N-tosyl-5-benzyloxyindol-3-yl)-1H-pyrrole-2,5-dione], the “Fold Induction” value in the data set with HIAP1 mRNA in LAN5 cells stood at 0.21. The “% SHSY-5Y cell survival” value with SHSY-5Y cells (drug 10 μM) is recorded as 7.6%.
With `CC(C)(C)OC(=O)NCC(=O)n1cc(C2=CC(=O)NC2=O)c2cc(OCc3ccccc3)ccc21` [Compound 69, 3-(N-(N-Boc-2-aminoacetyl)-5-benzyloxyindol-3-yl)-1H-pyrrole-2,5-dione], the “% SHSY-5Y cell survival” value in the data set on SHSY-5Y cells (drug 1 μM) is 5.6%.
In the case of `COc1ccc2[nH]c3c(c4c(n5c6ccccc6cc35)C(=O)NC4=O)c2c1` [Compound 47], the “inhibition of HK/LK cell death / protection of CGN neurons” value with CGNs [2] (10 μM drug) is “(100% inhibition at 10 (μM)”. The 50% inhibitory concentration (IC50) in the data set on CGNs [2] (Mus musculus, HK/LK switch, drug 24 h pre-treatment, assayed 16 h after media change, concentration at which cell death was inhibited by 50%) was determined as 3 µM; in the data set with CGNs [1], 10 µM; in the data set on SCG neurons, 10 µM.
For the compound `O=C1C=C(c2cn(S(=O)(=O)c3ccc([N+](=O)[O-])cc3)c3ccc(OCc4ccccc4)cc23)C(=O)N1` [Compound 71, 3-(N-(4-nitrobenzenesulfonyl)-5-benzyloxyindol-3-yl)-1H-pyrrole-2,5-dione], the “% SHSY-5Y cell survival” value with SHSY-5Y cells (drug 10 μM) came out at 26.4%.
